Measurements as given in ChEMBL document CHEMBL1121791, “Computer-assisted structure-activity studies of chemical carcinogens. Aromatic amines” (J Med Chem, 1981).

Tests used:
Assay type in all cases: functional, organism-based
Rattus norvegicus [1] = experiment: Carcinogenic activity on all sites after intraperitoneal administration
Rattus norvegicus [2] = experiment: Carcinogenic activity on breast after intraperitoneal administration
Rattus norvegicus [3] = experiment: Carcinogenic activity on all sites after subcutaneous administration
Rattus norvegicus [4] = experiment: Carcinogenic activity on other sites after subcutaneous administration
Rattus norvegicus [5] = experiment: Carcinogenic activity on breast after oral administration
Rattus norvegicus [6] = experiment: Carcinogenic activity on breast after subcutaneous administration
Rattus norvegicus [7] = experiment: Carcinogenic activity on all sites after oral administration
Rattus norvegicus [8] = experiment: Carcinogenic activity on mixed data after oral administration
Rattus norvegicus [9] = experiment: Carcinogenic activity on ear duct after oral administration
Rattus norvegicus [10] = experiment: Carcinogenic activity on other sites after oral administration
Rattus norvegicus [11] = experiment: Carcinogenic activity on liver after subcutaneous administration
Rattus norvegicus [12] = experiment: Carcinogenic activity on breast after oral administration of the compound
Rattus norvegicus [13] = experiment: Carcinogenic activity on liver after oral administration
Rattus norvegicus [14] = experiment: Carcinogenic activity on ear duct after subcutaneous administration

Measured: Activity

CC(=O)N(O)c1ccc2c(c1)-c1ccccc1C2
Carcinogenic activity: Rattus norvegicus [1] | Rattus norvegicus [2]

COc1cc(N)ccc1-c1ccccc1
Carcinogenic activity: Rattus norvegicus [3] | Rattus norvegicus [4]

Cc1ccc(/N=N/c2cc(C)ccc2N)cc1
Carcinogenic activity: Rattus norvegicus [5]

CC(=O)N(O)c1ccc2c(ccc3ccccc32)c1
Carcinogenic activity: Rattus norvegicus [3] | Rattus norvegicus [6] | Rattus norvegicus [4]

Nc1ccc(/C=C/c2ccc(N)c(Cl)c2)cc1Cl
Carcinogenic activity: Rattus norvegicus [3] | Rattus norvegicus [4]

CC(=O)ON(C(C)=O)c1ccc2c(c1)Cc1ccccc1-2
Carcinogenic activity: Rattus norvegicus [3] | Rattus norvegicus [4]

CC(=O)N(OC(=O)c1ccccc1)c1ccc2c(c1)Cc1ccccc1-2
Carcinogenic activity: Rattus norvegicus [3] | Rattus norvegicus [4]

Cc1cc(-c2ccccc2C)ccc1N
Carcinogenic activity: Rattus norvegicus [7] | Rattus norvegicus [5] | Rattus norvegicus [8] | Rattus norvegicus [9] | Rattus norvegicus [10]

CC(=O)Nc1ccc2c(c1)-c1ccccc1C2
Carcinogenic activity: Rattus norvegicus [1] | Rattus norvegicus [2]

N#Cc1cc(/C=C/c2ccccc2)ccc1N
Carcinogenic activity: Rattus norvegicus [3] | Rattus norvegicus [4] | Rattus norvegicus [11]

CC(=O)Nc1ccc2c(c1)Cc1ccc(F)cc1-2
Carcinogenic activity: Rattus norvegicus [7] | Rattus norvegicus [12] | Rattus norvegicus [8] | Rattus norvegicus [13] | Rattus norvegicus [9] | Rattus norvegicus [10]

CNc1ccc2c(c1)Cc1ccccc1-2
Carcinogenic activity: Rattus norvegicus [7] | Rattus norvegicus [12] | Rattus norvegicus [8] | Rattus norvegicus [13] | Rattus norvegicus [9] | Rattus norvegicus [10]

CC(=O)N(O)c1ccc2c(c1)Cc1cc(F)ccc1-2
Carcinogenic activity: Rattus norvegicus [7] | Rattus norvegicus [12] | Rattus norvegicus [8] | Rattus norvegicus [13] | Rattus norvegicus [9] | Rattus norvegicus [10]

CC(=O)Nc1cccc2c1Cc1ccccc1-2
Carcinogenic activity: Rattus norvegicus [1] | Rattus norvegicus [2]

CC(=O)ON(C(C)=O)c1ccc(-c2ccccc2)cc1
Carcinogenic activity: Rattus norvegicus [3] | Rattus norvegicus [4]

CC(=O)Nc1csc(-c2ccc([N+](=O)[O-])o2)n1
Carcinogenic activity: Rattus norvegicus [3] | Rattus norvegicus [6] | Rattus norvegicus [4]

Cc1cc(C)c(-c2ccc(N)cc2C)c(C)c1
Carcinogenic activity: Rattus norvegicus [3] | Rattus norvegicus [4]

CC(=O)Nc1ccc2c(c1)Cc1cc(NC(C)=O)ccc1-2
Carcinogenic activity: Rattus norvegicus [7] | Rattus norvegicus [12] | Rattus norvegicus [8] | Rattus norvegicus [13] | Rattus norvegicus [9] | Rattus norvegicus [10]

Cc1ccc(C)c(-c2ccc(N)cc2C)c1
Carcinogenic activity: Rattus norvegicus [3] | Rattus norvegicus [4]

Nc1ccc(/C=C/c2ccc(F)cc2)cc1
Carcinogenic activity: Rattus norvegicus [3] | Rattus norvegicus [4] | Rattus norvegicus [11] | Rattus norvegicus [8] | Rattus norvegicus [14]

Cc1cc(/N=N/c2ccccc2C)ccc1N
Carcinogenic activity: Rattus norvegicus [3] | Rattus norvegicus [11]

Cc1cc(N)ccc1/C=C/c1ccccc1
Carcinogenic activity: Rattus norvegicus [3] | Rattus norvegicus [4]

Nc1cccc2c1ccc1ccccc12
Carcinogenic activity: Rattus norvegicus [7] | Rattus norvegicus [5]

NNc1nc(-c2ccc([N+](=O)[O-])cc2)cs1
Carcinogenic activity: Rattus norvegicus [7] | Rattus norvegicus [5]

NNc1nc(-c2ccc([N+](=O)[O-])o2)cs1
Carcinogenic activity: Rattus norvegicus [7] | Rattus norvegicus [5]

CC(=O)N(C(C)=O)c1ccc2c(c1)Cc1ccccc1-2
Carcinogenic activity: Rattus norvegicus [7] | Rattus norvegicus [12] | Rattus norvegicus [8] | Rattus norvegicus [13] | Rattus norvegicus [9] | Rattus norvegicus [10]

CC(=O)N(O)c1cccc2c1Cc1ccccc1-2
Carcinogenic activity: Rattus norvegicus [1] | Rattus norvegicus [2]

Nc1ccc(/C=C/c2ccc(N)cc2)cc1
Carcinogenic activity: Rattus norvegicus [3] | Rattus norvegicus [14]

CC(=O)N(C(C)=O)c1ccc(/C=C/c2ccccc2)cc1
Carcinogenic activity: Rattus norvegicus [3] | Rattus norvegicus [4] | Rattus norvegicus [14]

Cc1cc(/C=C/c2ccccc2)ccc1N
Carcinogenic activity: Rattus norvegicus [3] | Rattus norvegicus [4]

CC(=O)Nc1ccc2c(ccc3ccccc32)c1
Carcinogenic activity: Rattus norvegicus [7] | Rattus norvegicus [5] | Rattus norvegicus [8] | Rattus norvegicus [13] | Rattus norvegicus [9] | Rattus norvegicus [10]

Nc1ccc(/C=C/c2ccccc2)cc1
Carcinogenic activity: Rattus norvegicus [7] | Rattus norvegicus [5] | Rattus norvegicus [9]

[O-][n+]1ccc(NO)c2ccccc21
Carcinogenic activity: Rattus norvegicus [7] | Rattus norvegicus [5] | Rattus norvegicus [10]

COc1cc(/C=C/c2ccccc2)c(OC)cc1N
Carcinogenic activity: Rattus norvegicus [3] | Rattus norvegicus [14]

Nc1ccc2c(ccc3ccccc32)c1
Carcinogenic activity: Rattus norvegicus [7] | Rattus norvegicus [5]

Cc1cc(Cc2ccc(N)c(C)c2)ccc1N
Carcinogenic activity: Rattus norvegicus [7] | Rattus norvegicus [12] | Rattus norvegicus [8] | Rattus norvegicus [13] | Rattus norvegicus [10]

O=CNNc1nc(-c2ccc([N+](=O)[O-])o2)cs1
Carcinogenic activity: Rattus norvegicus [7] | Rattus norvegicus [5] | Rattus norvegicus [10]

Nc1ccc(/C=C/c2ccc(N)cc2Cl)c(Cl)c1
Carcinogenic activity: Rattus norvegicus [3] | Rattus norvegicus [11]

Nc1ccc(-c2ccccc2)cc1
Carcinogenic activity: Rattus norvegicus [7] | Rattus norvegicus [5]

CN(C)c1ccc2c(c1)Cc1ccccc1-2
Carcinogenic activity: Rattus norvegicus [7] | Rattus norvegicus [12] | Rattus norvegicus [8] | Rattus norvegicus [13] | Rattus norvegicus [9] | Rattus norvegicus [10]

CC(=O)ON(C(C)=O)c1cccc2ccc3ccccc3c12
Carcinogenic activity: Rattus norvegicus [3] | Rattus norvegicus [4]

CC(=O)Nc1cc2c(cc1F)-c1ccccc1C2
Carcinogenic activity: Rattus norvegicus [7] | Rattus norvegicus [12] | Rattus norvegicus [8] | Rattus norvegicus [13] | Rattus norvegicus [9]

CC(=O)Nc1ccc2c(c1)Cc1cc(F)ccc1-2
Carcinogenic activity: Rattus norvegicus [7] | Rattus norvegicus [12] | Rattus norvegicus [8] | Rattus norvegicus [13] | Rattus norvegicus [9]

N/C(=N\O)c1ccc([N+](=O)[O-])o1
Carcinogenic activity: Rattus norvegicus [7] | Rattus norvegicus [5] | Rattus norvegicus [8]
